Laboratory results from patent US12728147B2, “Composition for preventing or treating inflammatory disease comprising hydrolysis extract of pulsatilla koreana and anemone raddeana as active ingredient” (priority 2020, dated 2026).
Where two headings read alike, the source gives them in different places.

Legend:
[1] = tested on: human umbilical vein endothelial cells (HUVECs); conditions: cited from earlier work
[2] = tested on: rats with edema induced with carrageenan; format: in vivo; conditions: for Average edema reduction percent: average of the reduction percent values after 2, 3 and 4 hours
Protocol: Each experimental group was composed of three Wistar rats, and the edema was formed by subplantar injection of 0.1 ml of a 1% (w/v) lambda carrageenan solution to the left hind paw of the rats. By the same method, 0.1 ml of physiological saline was injected into the right hind paw. […] For the control, 2 ml of physiological saline was used. As for Comparative Example 1, the group was orally administered with 10 mg/kg indomethacin. The medicinal effect was assayed as percentage (%) by measuring the volume of edema from 2 hours to 4 hours in 1 hour units after carrageenan administration. [{1−S/C}×100] (S: edema volume in the preparation administration group, C: edema volume in the carrageenan administration group) The volume of edema was measured by water plethysmography. As for Preparation 16, the anti-inflammatory effect was observed by direct injection of […] into the point of carrageenan injection on the rats. This method was used considering that in the vertebral skeletal diseases, drugs are often directly injected into affected areas in clinical practice, and the method can also be applied to the herbal acupuncture in oriental medicine. In the present invention, 0.2 ml of Preparation 14 was selected and directly injected twice at an interval of 30 minutes to the point of carrageenan injection on the left hind paw of the rats (Comparative Example 6). That is, the injection was conducted at 150 minutes and 180 minutes after carrageenan injection, and the anti-inflammatory assay was conducted 240 minutes (4 hours after carrageenan injection). Comparative Example 2 was a Preparation of 1 mg of HcolA1 mixed with 1 mg of HcolA. The control was used for a physiological saline administration group.
The edema size reduction percent (%) was expressed as the ratio of the edema size by each preparation after each hour relative to the size of edema (control) by carrageenan injection after each hour as shown below, and the average reduction percent of edema was expressed as an average value of the reduction percent values of each preparation after 2, 3, or 4 hours. Edema size reduction percent (%)={1−(edema size by each preparation/edema size by control)}×100

[3] = tested on: carrageenan-induced rat paw inflammation; conditions: literature report; cited from earlier work

COC1C(=O)Oc2ccccc2C1(COC(=O)C=C(C)C)OC (centres unmarked) [4-senecioyloxymethyl-3,4-dimethoxycoumarin]
Inhibition of HUVEC angiogenesis ([1]; at 1 μg/ml): 53%

COc1ccc2c(c1)c(CC(=O)O)c(C)n2C(=O)c1ccc(Cl)cc1 [Comparative Example 1, Indomethacin]
Edema size reduction percent, 2 hours ([2]; 2 hours after carrageenan, relative to control): 0.012(63) %
Edema size reduction percent, 3 hours ([2]; 3 hours after carrageenan, relative to control): 0.043(64) %
Edema size reduction percent, 4 hours ([2]; 4 hours after carrageenan, relative to control (Comparative Example 6: direct injection into point of carrageenan injection)): 0.023(63) %
Edema size over time (hour) after treatment, 4 hours ([2]; 4 hours after carrageenan, 1 ml i.p. 1 h before edema induction (Comparative Example 1 oral; Comparative Example 6: 0.2 ml injected directly twice at 150 and 180 min), mean): 0.321
Average edema reduction percent [2]: (63.3) %
Average edema reduction percent ([2]; listed as indomethacin): 63.3%

C[C@@H]1O[C@@H](O[C@H]2[C@H](O[C@H]3CC[C@]4(C)[C@H]5CC=C6[C@@H]7CC(C)(C)CC[C@]7(C(=O)O[C@@H]7O[C@H](CO[C@@H]8O[C@H](CO)[C@@H](O[C@@H]9O[C@@H](C)[C@H](O)[C@@H](O)[C@H]9O)[C@H](O)[C@H]8O)[C@@H](O)[C@H](O)[C@H]7O)CC[C@@]6(C)[C@]5(C)CC[C@H]4C3(C)C)OC[C@H](O[C@@H]3O[C@H](CO)[C@@H](O)[C@H](O)[C@H]3O)[C@@H]2O)[C@H](O)[C@H](O)[C@H]1O [HcolE, hederacolchiside E]
Anti-inflammatory effect on carrageenan-induced rat paw inflammation [3]: insignificant

C[C@@H]1O[C@@H](O[C@H]2[C@H](O[C@H]3CC[C@@]4(C)[C@@H](CC[C@]5(C)[C@@H]4CC=C4[C@@H]6CC(C)(C)CC[C@]6(C(=O)O[C@@H]6O[C@H](CO[C@@H]7O[C@H](CO)[C@@H](O[C@@H]8O[C@@H](C)[C@H](O)[C@@H](O)[C@H]8O)[C@H](O)[C@H]7O)[C@@H](O)[C@H](O)[C@H]6O)CC[C@]45C)[C@]3(C)CO)OC[C@H](O[C@@H]3O[C@H](CO)[C@@H](O)[C@H](O)[C@H]3O)[C@@H]2O)[C@H](O)[C@H](O)[C@H]1O [HcolF, hederacolchiside F]
Anti-inflammatory effect on carrageenan-induced rat paw inflammation [3]: confirmed in a predetermined range

CCC[C@H](CC/C=C/C=C/C#CC#C/C=C\CO)OC(C)=O [acetylbupleurotoxin]
Inhibition of HUVEC angiogenesis ([1]; at a concentration of 30 μg/ml): 100%

CCC[C@H](O)CC/C=C/C=C/C#CC#C/C=C\CO [bupleurotoxin]
Inhibition of HUVEC angiogenesis ([1]; at a concentration of 30 μg/ml): 100%

COc1cc([C@@H]2c3cc4c(cc3C[C@H]3COC(=O)[C@@H]32)OCO4)cc(OC)c1OC [deoxypodophyllotoxin]
Inhibition of HUVEC angiogenesis ([1]; at a concentration of 3 ng/ml): 100%

C[C@@H]1O[C@@H](O[C@H]2[C@H](O[C@H]3CC[C@]4(C)[C@H]5CC=C6[C@@H]7CC(C)(C)CC[C@]7(C(=O)O)CC[C@@]6(C)[C@]5(C)CC[C@H]4C3(C)C)OC[C@H](O[C@@H]3O[C@H](CO)[C@@H](O)[C@H](O)[C@H]3O)[C@@H]2O)[C@H](O)[C@H](O)[C@H]1O [hederacolchiside A1]
Inhibition of HUVEC angiogenesis ([1]; at a concentration of 2 μg/ml): 100%

C[C@@H]1O[C@@H](O[C@H]2[C@H](O[C@H]3CC[C@@]4(C)[C@@H](CC[C@]5(C)[C@@H]4CC=C4[C@@H]6CC(C)(C)CC[C@]6(C(=O)O)CC[C@]45C)[C@]3(C)CO)OC[C@H](O[C@@H]3O[C@H](CO)[C@@H](O)[C@H](O)[C@H]3O)[C@@H]2O)[C@H](O)[C@H](O)[C@H]1O [hederacolchiside A]
Inhibition of HUVEC angiogenesis ([1]; at a concentration of 2 μg/ml): did not show such activity
